Assays:
[1] = tested on: ATF4; assay: ATF4 inhibition assay under Aβ stimulation (SH-SY5Y cells with 7PA2 CHO conditioned media); type: cell-based, human; settings: 16 hours, 1 nM to 10 μM compound (FIG. 7)
Experimental: Chinese hamster ovary (CHO) cells that stably express human APP751 incorporating the familial Alzheimer's disease mutation V717F were used as a source of […] monomer and low-n oligomers. These cells, referred to as 7PA2 CHO cells, were cultured in 100 mm dishes with Dulbecco's modified Eagle's medium (DMEM) containing 10% fetal bovine serum, 2 mM L-glutamine, 100 U/ml penicillin, and 100 μg/ml […], streptomycin and […] G418. Upon reaching 90-100% confluency, cells were washed with 5 mL of glutamine- and serum-free DMEM and incubated for approximately 16 h in 5 mL of the same DMEM. Conditioned media (CM) was collected.
SH-SY5Y cells were maintained at 37° C. and 5% CO2 in RPMI 1640 media supplemented with 10% fetal bovine serum (FBS), penicillin and streptomycin. After reaching 80% of confluence, cells were detached and seeded on 6 well plates in complete media, allowed to recover 48 h and treated for 16 hours with CM from WT CHO cells (wtCM) or 7PA2 CHO cells (7PA2CM) in the presences of various concentrations ranging from 1 nM to 10 μM of compound 58.
After 16 hours treatment, culture media were removed and cells were lysed with SDS-PAGE lysis buffer. Lysates were transferred to 1.5 ml tubes and sonicated for 3 min. Total protein amount was quantified using BCA Protein Assay Kit (Pierce). Equal amount of proteins (30 μg) were loaded on SDS-PAGE gels. […]

[2] = tested on: fasted Balb/c mice, quadriceps; assay: Fasting-induced muscle atrophy; type: in vivo, mouse; settings: 10 mg/kg oral
Experimental: Wild type eight-weeks-old male Balb/c mice obtained from the vivarium Fundación Ciencia & Vida Chile (Santiago, Chile) were used. Mice were housed in independent plastic cages in a room maintained at 25° C. with a 12-h:12-h light:dark cycle.
Twenty-four hours before and during the 2 days of fasted procedures, animals were weighed and receive oral administration via feeding tubes (15 gauge) of vehicle (50% Polyethylene glycol 400 (Sigma-Aldrich P3265) in distilled water or 10 mg/kg of test compound formulated in vehicle solution.
After 2 days of fasting the animals were weighed and sacrificed. Quadriceps were removed from both hindlimbs and weighed. Mice with feed and water ad libitum were used as control. […]
Upon collection, muscles were immediately frozen in liquid nitrogen and then stored at −80° C. […] Protein concentration in supernatants was determined using BCA Protein Assay Kit (Pierce). […]
Puromycin (12D10) (Merck Millipore) ATF4 (Abcam), Atrogin-1 (ECM Biosciences), MuRF-1 (Santa Cruz Biotechnology) and β-actin (Sigma-Aldrich) antibodies were used as primary antibodies. […] Quantification of protein bands was done by densitometry using ImageJ software. […]

[3] = tested on: ATF4; assay: ATF4 expression inhibition assay (immunoblot, Tg-stressed HEK293T cells); type: cell-based, human; settings: 100 nM Tg, 3 hours, 0.1 nM to 10 μM compound (FIG. 6)
Experimental: HEK293T cells were maintained at 37° C. and 5% CO2 in Dulbecco's Modified Eagle's Media (DMEM) supplemented with 10% fetal bovine serum (FBS), 2 mM L-glutamine, 100 U/ml penicillin, and 100 μg/ml streptomycin. After reaching 80% of confluence, cells were detached and seeded on 6 well plates in complete media, allowed to recover overnight and treated for 3 hours with 100 nM thapsigargin (Tg) in the presence of various concentrations ranging from 0.1 nM to 10 μM. Cells without treatment (Veh) or cells treated with Tg alone were used as controls.
After 3 hours of treatment with Tg and the test compound, cells were lysed with SDS-PAGE lysis buffer. Lysates were transferred to 1.5 ml tubes and sonicated for 3 min, and total protein amounts were quantified using BCA Protein Assay Kit (Pierce). Equal amount of proteins was loaded on SDS-PAGE gels. Proteins were transferred onto […] PVDF membranes (BioRad) and probed with primary antibodies diluted in Tris-buffered saline supplemented with 0.1% Tween 20 and 3% bovine serum albumin.
ATF4 (11815) antibody (Cell Signaling Technologies) and β-actin (Sigma-Aldrich) antibodies were used as primary antibodies. […]

O=C(NN1CCN(C[C@@H](O)COc2ccc(Cl)c(F)c2)CC1)c1ccc2cc(Cl)ccc2n1 [Compound 58, (R)-6-chloro-N-(4-(3-(4-chloro-3-fluorophenoxy)-2-hydroxypropyl)piperazin-1-yl)quinoline-2-carboxamide]
ATF4 expression in the presence of Aβ oligomers (immunoblot) [1]: inhibits the expression of ATF4 in the presence of Aβ oligomers treatment in a dose dependent manner | ATF4 expression in quadriceps ([2]; vs vehicle-treated fasted mice (FIG. 8F)): reduction | Atrogin-1 expression in quadriceps ([2]; vs vehicle-treated fasted mice (FIG. 8G)): reduction | ATF4 expression under Tg stress (immunoblot) [3]: inhibits the expression of ATF4 under Tg treatment in a dose dependent manner

From patent US11166942B2 (PRAXIS BIOTECH LLC, priority 2018, dated 2021)
